Laboratory results: ChEMBL document CHEMBL2010689 (J Med Chem, 2012)
Blank lines part the entries; values can stand above or below the compound they belong to.

Tests used:
Angiopoietin-1 receptor = Angiopoietin-1 receptor (Homo sapiens, UniProt Q02763)
Description: Inhibition of human recombinant Tie2 expressed in baculovirus expression system using GST-PLCgamma as substrate after 1 hr by time-resolved fluorescence analysis

[1] = molecular target: Vascular endothelial growth factor receptor 2 (Homo sapiens, UniProt P35968)
Description: Inhibition of human recombinant VEGF-R2 expressed in baculovirus expression system using GST-PLCgamma as substrate after 1 hr by time-resolved fluorescence analysis

[2] = Oral bioavailability in Sprague-Dawley rat at 5 mg/kg; type: ADME, organism-based; conditions: in vivo
[3] = Metabolic stability in rat liver S9 fraction assessed as compound remaining after 2 hrs; type: ADME, subcellular; conditions: read-out: Stability
[4] = Metabolic stability in human liver S9 fraction assessed as compound remaining after 2 hrs; type: ADME, subcellular; conditions: read-out: Stability
[5] = Metabolic stability in dog liver S9 fraction assessed as compound remaining after 2 hrs; type: ADME, subcellular, Canis lupus familiaris; conditions: read-out: Stability
[6] = Metabolic stability in monkey liver S9 fraction assessed as compound remaining after 2 hrs; type: ADME, subcellular, Macaca mulatta; conditions: rhesus monkey, read-out: Stability
[7] = Metabolic stability in mouse liver S9 fraction assessed as compound remaining after 2 hrs; type: ADME, subcellular; conditions: read-out: Stability

Angiopoietin-1 receptor, sequence (Q02763 whole entry): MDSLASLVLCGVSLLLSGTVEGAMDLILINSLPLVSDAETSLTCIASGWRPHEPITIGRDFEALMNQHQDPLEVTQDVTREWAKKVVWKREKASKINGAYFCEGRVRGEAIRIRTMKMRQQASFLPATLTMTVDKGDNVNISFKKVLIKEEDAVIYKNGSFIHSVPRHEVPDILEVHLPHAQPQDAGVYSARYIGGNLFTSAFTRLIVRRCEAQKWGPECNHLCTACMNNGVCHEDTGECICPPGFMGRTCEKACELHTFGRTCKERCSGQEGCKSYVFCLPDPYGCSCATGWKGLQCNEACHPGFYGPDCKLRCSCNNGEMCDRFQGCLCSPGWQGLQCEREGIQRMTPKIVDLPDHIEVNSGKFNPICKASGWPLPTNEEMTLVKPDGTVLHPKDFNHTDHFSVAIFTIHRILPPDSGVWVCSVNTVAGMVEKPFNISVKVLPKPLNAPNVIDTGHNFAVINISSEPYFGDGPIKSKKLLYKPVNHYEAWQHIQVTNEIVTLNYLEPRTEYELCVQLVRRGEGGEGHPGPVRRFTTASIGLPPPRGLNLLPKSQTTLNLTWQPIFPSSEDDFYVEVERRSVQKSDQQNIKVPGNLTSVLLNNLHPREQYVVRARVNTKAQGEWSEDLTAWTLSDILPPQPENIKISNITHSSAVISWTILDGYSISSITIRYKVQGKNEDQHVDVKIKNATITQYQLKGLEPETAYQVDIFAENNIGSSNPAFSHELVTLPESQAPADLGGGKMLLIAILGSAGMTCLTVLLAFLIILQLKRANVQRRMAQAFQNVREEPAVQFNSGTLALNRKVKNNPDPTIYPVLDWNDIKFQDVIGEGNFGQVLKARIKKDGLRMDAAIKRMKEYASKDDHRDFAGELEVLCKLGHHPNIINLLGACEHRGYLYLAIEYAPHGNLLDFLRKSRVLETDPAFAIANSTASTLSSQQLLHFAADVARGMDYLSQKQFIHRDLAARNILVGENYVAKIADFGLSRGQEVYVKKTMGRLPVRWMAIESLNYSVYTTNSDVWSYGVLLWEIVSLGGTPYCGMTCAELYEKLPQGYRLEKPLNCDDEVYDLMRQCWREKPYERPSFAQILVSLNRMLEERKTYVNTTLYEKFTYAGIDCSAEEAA
Vascular endothelial growth factor receptor 2, sequence (P35968 whole entry): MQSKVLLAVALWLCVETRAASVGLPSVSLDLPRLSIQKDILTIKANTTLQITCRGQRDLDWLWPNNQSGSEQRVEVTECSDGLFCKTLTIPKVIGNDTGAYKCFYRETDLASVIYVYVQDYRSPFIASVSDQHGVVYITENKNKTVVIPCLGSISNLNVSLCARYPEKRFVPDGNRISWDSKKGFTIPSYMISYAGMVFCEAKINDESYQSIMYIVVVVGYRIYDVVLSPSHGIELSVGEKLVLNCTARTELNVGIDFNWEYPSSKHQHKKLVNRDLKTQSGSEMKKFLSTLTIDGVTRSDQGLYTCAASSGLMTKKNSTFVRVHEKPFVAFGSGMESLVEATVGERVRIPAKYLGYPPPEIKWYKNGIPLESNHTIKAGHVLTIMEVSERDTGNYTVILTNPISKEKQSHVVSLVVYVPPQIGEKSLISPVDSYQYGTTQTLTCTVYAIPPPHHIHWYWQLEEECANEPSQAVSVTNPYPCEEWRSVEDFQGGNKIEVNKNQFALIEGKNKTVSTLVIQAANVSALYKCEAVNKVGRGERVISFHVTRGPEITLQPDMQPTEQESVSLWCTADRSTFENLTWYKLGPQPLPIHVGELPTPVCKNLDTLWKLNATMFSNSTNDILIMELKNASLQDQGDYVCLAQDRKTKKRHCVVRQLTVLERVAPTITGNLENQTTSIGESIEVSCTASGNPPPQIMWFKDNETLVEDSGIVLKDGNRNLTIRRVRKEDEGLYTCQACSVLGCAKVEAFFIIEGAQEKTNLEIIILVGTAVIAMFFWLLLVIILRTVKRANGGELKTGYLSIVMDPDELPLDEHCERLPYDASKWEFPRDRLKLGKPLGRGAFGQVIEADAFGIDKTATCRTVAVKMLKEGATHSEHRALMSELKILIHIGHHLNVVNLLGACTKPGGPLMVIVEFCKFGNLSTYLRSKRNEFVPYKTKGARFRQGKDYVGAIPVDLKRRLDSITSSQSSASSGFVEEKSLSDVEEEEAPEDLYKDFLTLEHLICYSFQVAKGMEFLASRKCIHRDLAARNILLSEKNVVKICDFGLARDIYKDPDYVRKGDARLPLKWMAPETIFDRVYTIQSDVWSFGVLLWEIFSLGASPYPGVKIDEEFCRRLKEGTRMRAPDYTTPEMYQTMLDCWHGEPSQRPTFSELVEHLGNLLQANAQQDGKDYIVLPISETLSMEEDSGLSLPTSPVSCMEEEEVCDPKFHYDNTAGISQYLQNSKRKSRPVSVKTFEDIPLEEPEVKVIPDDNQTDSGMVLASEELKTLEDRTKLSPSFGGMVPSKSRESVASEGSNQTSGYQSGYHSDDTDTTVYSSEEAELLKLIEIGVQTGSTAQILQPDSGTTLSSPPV

Compound: CCCn1c2ccc(Nc3ncccn3)cc2c2c3c(c4c(c21)CCc1nn(C)cc1-4)C(=O)NC3
bioavailability [2]: 22%
remaining at 2 h [3]: 65%
remaining at 2 h [4]: 54%
remaining at 2 h [5]: 65%
remaining at 2 h [6]: 44%
remaining at 2 h [7]: 65%

Compound: CC(C)Cn1c2ccc(Nc3nccc(C(F)(F)F)n3)cc2c2c3c(c4c(c21)CCc1nn(C)cc1-4)C(=O)NC3
IC50 (Angiopoietin-1 receptor): > 3 µM

Compound: CC(C)n1c2ccc(Nc3ccncc3)cc2c2c3c(c4c(c21)CCc1nn(C)cc1-4)C(=O)NC3
IC50 (Angiopoietin-1 receptor): > 3 µM

Compound: CC(C)OCc1ccc2c(c1)c1c3c(c4c(c1n2CCCO)Cc1ccccc1-4)C(=O)NC3 [CEP-5214]
IC50 (Angiopoietin-1 receptor): > 10 µM

Continued, values first:

IC50 (Angiopoietin-1 receptor): > 3 µM
IC50 [1]: > 3 µM
Compound: Cc1cc(C)nc(Nc2ccc3c(c2)c2c4c(c5c(c2n3CC(C)C)CCc2nn(C)cc2-5)C(=O)NC4)n1

IC50 (Angiopoietin-1 receptor): > 1 µM
Compound: COc1ccnc(Nc2ccc3c(c2)c2c4c(c5c(c2n3CC(C)C)CCc2nn(C)cc2-5)C(=O)NC4)n1
